According to US20130345051A1, “FUNGICIDAL AND BACTERICIDAL COMPOSITION THAT COMPRISES VOLATILE ORGANIC COMPOUNDS OF NATURAL ORIGIN” (BIOFUNGITEK, SOCIEDAD LIMITADA, priority 2011, published 2013):
≈ marks a conversion by molar mass, not a printed value.

Legend:
Erwinia carotovora = experiment: Gas-phase bioassay in hermetically sealed vials, growth inhibition of the bacterium Erwinia carotovora; assay type: cell-based; conditions: compound in the gas phase; for IC50: Pectobacterium carotovorum, read-out: IC50 (50% inhibiting concentration)
Protocol: (§1) The antifungal and antibacterial activity of the VOC obtained in Example 1 was tested by bioassay in hermetically sealed vials in which the microorganism was cultured while being exposed to the compound under test in the gas phase at different concentrations. […] The IC50 (50% inhibiting concentration), the MIC (minimum inhibiting concentration) and the MLC (minimum lethal concentration) were calculated.

Botrytis cinerea = experiment: Gas-phase bioassay in hermetically sealed vials, growth inhibition of the fungus Botrytis cinerea; assay type: cell-based; conditions: compound in the gas phase; for IC50: read-out: IC50 (50% inhibiting concentration)
Protocol: as §1

IC50 (Erwinia carotovora) [µg/mL]	MIC (minimum inhibiting concentration) (Erwinia carotovora) [mg/Lair]	MIC (minimum inhibiting concentration) (Botrytis cinerea) [mg/Lair]	IC50 (Botrytis cinerea) [µg/mL]	SMILES	MLC (minimum lethal concentration) (Erwinia carotovora) [mg/Lair]	MLC (minimum lethal concentration) (Botrytis cinerea) [mg/Lair]
15 (≈ 115 µM)	50	5	4 (≈ 30.7 µM)	CCCCC(CC)CO (stereo not drawn) [2-ethyl-1-hexanol]	75	10
150 (≈ 1470 µM)	>150	20	15 (≈ 147 µM)	CCCCCCO [hexanol]	>150	40
> 150	>150	40	5 (≈ 32.4 µM)	CC1(C)[C@@H]2CC[C@@]1(C)[C@H](O)C2 (racemic) [isoborneol]	>150	40
